Measurements published in patent US20110086828A1, “TREATMENT OF ALCOHOL ABUSE AND […] MODULATORS OF NE[…] SITES ON GABAA RECEPTORS” (Board of Supervisors of Louisiana State University and …, priority 2009, published 2011).

Test system: male Long-Evans hooded rats
Assay: two-bottle ethanol preference test (ethanol intake) after i.p. neuroactive steroid
Assay type: in vivo, rat
Conditions: for ethanol intake vs baseline / volume of ethanol intake vs baseline: 10 and 56 mg/kg i.p. 15 min before 30-min session; for water intake: 10 and 56 mg/kg i.p.; for effect on ethanol intake (oral self administration of ethanol): summary statement, twenty-two male Long-Evans hooded rats
Procedure: Upon arrival, these subjects were housed 4 per cage and provided a diet of standard rodent chow ad libitum (Rodent Diet 5001, PMI Inc., St. Louis, Mo., USA) until postnatal day (hereinafter “PD”) 70. From PD 71 forward, the subjects were housed individually and maintained at 95% of their free-feeding weight during which a saccharin-fading procedure was conducted. Water was provided ad libitum in the home cage except during the experimental sessions. The home cage was made of polypropylene plastic and contained hardwood chip bedding. The colony room was maintained at 21±2 C.° with 50±10% relative humidity on a 14L:10D (light/dark) cycle (lights on 06:00 hours (h); lights off 20:00 h). Following training under the saccharin-fading procedure, the subjects were returned to ad libitum feeding conditions for 73 (minimum) to 89 (maximum) days during which an ethanol concentration-effect curve was established. After this curve was obtained, subjects were maintained at 95% of their free-feeding weight for the rest of the study. Ethanol preference training and experimental sessions were conducted daily during the light cycle between the hours of 12:00 h and 14:00 h. Subjects used in these studies were maintained in accordance with the Institutional Animal Care and Use Committee, Louisiana State University Health Sciences Center, and in compliance with the guidelines of the National Institute of Health Guide for Care and Use of Laboratory Animal Resources (publication No. 85-23, revised 1996).
While still housed 4 per cage, subjects were randomly divided into two groups, a group that received ethanol between PD 35 and 63 (adolescent ethanol group) and a group that received saline during the same postnatal period (adolescent saline group). The adolescent ethanol group (n=11) received 2 g/kg of ethanol intraperitoneally (hereinafter “i.p.”) every other day, whereas the adolescent saline group (n=11) received an equal volume of saline every other day, for a total of 15 injections.
Subjects were trained to consume ethanol orally using a modified saccharin/ethanol fading procedure (Samson, 1986; Leonard et al., 2006) starting on PD 75. Prior to each daily training session, animals were weighed and then returned to their home cage. Water bottles were removed and replaced for 30 min with 50-ml plastic centrifuge tubes containing a saccharin/ethanol solution and fitted with a rubber stopper and metal sipper tube. At the end of the 30-min session, the drinking tubes were removed, water bottles were replaced, and the volume of the solution consumed was determined by weighing the tubes (i.e., [(weight prior to the session—weight after the session)-0.4 ml)]. All solutions were prepared fresh daily. Rats initially received a 0.2% sodium saccharin(weight (g of sodium saccharin)/volume (100 mL solution))/0% ethanol (volume (mL of alcohol)/volume (100 mL solution)) solution that was gradually replaced until a solution of 0% sodium saccharin/10% ethanol was achieved. After a subject acquired stable saccharin/ethanol intake (±20% of the mean for 3 consecutive days) or a maximum of 8 days elapsed, the next sodiumsaccharin/ethanol solution was presented. Solutions were presented in the following order: 0.2% saccharin/0% ethanol, 0.15% saccharin/0.5% ethanol, 0.125% saccharin/1% ethanol, 0.1% saccharin/2% ethanol, 0.05% saccharin/5% ethanol, 0.01% saccharin/8% ethanol, and 0% saccharin/10% ethanol. Training, which took 40-57 sessions, and all subsequent testing were conducted 7 days per week.
After a stable baseline of ethanol drinking was established with a 10% ethanol solution, a concentration-effect curve for ethanol and water consumption was established using the standard two-bottle preference test. During these tests, subjects were allowed simultaneous access to two drinking tubes daily for 60 min in their home cage. […]

SMILES | ethanol intake vs baseline (18% ethanol) | volume of ethanol intake vs baseline (18% ethanol) | water intake (30-min preference session) | ethanol intake volume (56 mg/kg i.p., every ethanol concentration except the 18% concentration) | ethanol intake, first day of injection (100 mg/kg i.p. (highest dose), 18% ethanol, p<0.001, n=22) | shift of ethanol concentration-effect curve (10, 32 and 56 mg/kg i.p. with ethanol 3.2-32%, p<0.05) | ethanol intake at varying ethanol concentrations (10 and 32 mg/kg i.p., both doses comparable) | ethanol intake vs vehicle, after stability criterion met (10 to 100 mg/kg i.p., 18% ethanol, p<0.05, n=22) | effect on ethanol intake (oral self administration of ethanol) | intake of 18% ethanol solution vs vehicle, after stability criterion met (10 mg/kg i.p., Holm-Sidak post-hoc, n=22) | sedative effects (highest dose of pregnanolone) | intake of 18% ethanol solution, first day of injection, comparison between doses (pregnanolone 3.2 mg/kg i.p. vs 1.8, 5.6 and 10 mg/kg, p<0.05) | intake of 18% ethanol solution vs vehicle, first day of injection (pregnanolone 1-10 mg/kg i.p., 30-min preference session, n=22)
CC(=O)OC1CC[C@@]2(C)C(=CC(=O)[C@@H]3[C@@H]2CC[C@]2(C)C(=O)CC[C@@H]32)C1 (some centres unmarked) [7-keto-DHEA, 3-acetyl-7-oxo-dehydroepiandrosterone] | dose-dependent decreases | dose-dependent decreases | not significantly different |  |  |  |  |  |  |  |  |  | 
C[C@]12CC[C@H](O)CC1=CC[C@@H]1[C@@H]2CC[C@]2(C)C(=O)CC[C@@H]12 [DHEA, 5-androstene-3β-ol-17-one] | dose-dependent decreases | dose-dependent decreases | not significantly different | below 1 ml | significant effect | shifted downward significantly | decreased the intake of ethanol concentrations ranging from 3.2 and 18% | significantly decreased intake | markedly reduce oral self administration of ethanol |  |  |  | 
CC(=O)[C@H]1CC[C@H]2[C@@H]3CC[C@@H]4C[C@H](O)CC[C@]4(C)[C@H]3CC[C@]12C [pregnanolone, 5β-pregnan-3α-ol-20-one] |  |  |  |  |  |  |  |  | no apparent effect on ethanol intake | significantly differed from vehicle | produced sedative effects | significantly higher | none of the effects of dose were different from vehicle
